Data: article PMC4295023 (Investigational New Drugs, 2014)
Read-outs that look alike come from different tables or passages of the source. One block for each molecule: values may come before it.

Experiments:
[1] = system: RCC; parameters: method as in PMID 22056247; settings: after first line therapy, cited from earlier work
[2] = Pharmacokinetic analysis of blood samples (noncompartmental); assay type: in vivo, human; settings: for AUC(0-t) / Cmax: human
Procedure: Blood samples were collected pre-, 1, 2, 4, 6, 8, 12, and 24 h post-dose on Days 1 and 2 of Cycles 1 and 2. […] Noncompartmental PK parameters were calculated using WinNonlin (Pharsight, Mountain View, CA).

SMILES: CNC(=O)c1ccccc1Sc1ccc2c(/C=C/c3ccccn3)n[nH]c2c1 [axitinib]
mPFS ([1]; axitinib arm): 6.7 months

AUC(0-t) ([2]; in vivo, tivantinib, cycle 2, one HCC patient, tivantinib 240 mg BID with sorafenib 400 mg BID, read-out: AUC0-12 h): 6690 ng·h/mL | Cmax ([2]; in vivo, tivantinib, cycle 2, one HCC patient, tivantinib 240 mg BID with sorafenib 400 mg BID, read-out: Cmax): 879 ng/mL | AUC(0-t) ([2]; in vivo, tivantinib, steady state (cycle 2), HCC patients, tivantinib 360 mg BID and sorafenib 400 mg BID, read-out: AUC0-12h): 12400 ng·h/mL | Cmax ([2]; in vivo, tivantinib, steady state (cycle 2), HCC patients, tivantinib 360 mg BID and sorafenib 400 mg BID, read-out: mean Cmax): 1510 ng/mL | AUC(0-t) ([2]; in vivo, tivantinib, steady state (cycle 2), non-HCC patients, tivantinib 360 mg BID and sorafenib 400 mg BID, read-out: AUC0-12h): 8740 ng·h/mL | Cmax ([2]; in vivo, tivantinib, steady state (cycle 2), non-HCC patients, tivantinib 360 mg BID and sorafenib 400 mg BID, read-out: mean Cmax): 1320 ng/mL
SMILES: O=C1NC(=O)[C@@H](c2cn3c4c(cccc24)CCC3)[C@@H]1c1c[nH]c2ccccc12 [tivantinib, Tivantinib]

AUC(0-t) ([2]; blood, sorafenib, steady state (cycle 2), HCC patients, tivantinib 360 mg BID and sorafenib 400 mg BID, read-out: AUC0-12h): 43300 ng·h/mL | AUC0-12h ([2]; sorafenib, steady state (cycle 2), non-HCC patients, tivantinib 360 mg BID and sorafenib 400 mg BID): 39,906 ± 20,604 ng*hr/mL
SMILES: CNC(=O)c1cc(Oc2ccc(NC(=O)Nc3ccc(Cl)c(C(F)(F)F)c3)cc2)ccn1 [sorafenib, reference compound]
mPFS ([1]; sorafenib arm): 4.7 months
